These are literature values, as cited in patent US6475478B2, “Adsorbent, adsorbing and removing process and adsorber for endogenous cannabinoid” (Kaneka Corporation, priority 2000, dated 2002).

The structures appear in SMILES notation.

For the series the following is noted: octanol-water system; compound fixed on the carrier.

As usually defined, the log P is a log measure of how a compound divides between an organic and an aqueous phase. In the case of `CCCCN` [n-butyl amine], the “log P” value is listed as 0.97.

For `CCCCCCCCCCN` [n-decyl amine], the “log P” value is on record as 4.07.
